Test results: patent US12297178B2, “Triazole derivative and use thereof” (GYEONGGIDO BUSINESS & SCIENCE ACCELERATOR, priority 2017, dated 2025)

Legend:
[1] = test system: UCP1 (uncoupling protein-1); experiment: Adipocyte differentiation induction experiment: relative UCP1 expression by real time PCR in C3H10T1/2 cells differentiated into white adipocytes; type: cell-based; conditions: compound 20 μM; for Relative expression level of UCP1 compared to DMSO: relative to DMSO control; for Relative expression level of UCP1 compared to butein: relative to butein 20 μM control
Procedure: C3H10T1/2 cells were commercially purchased, and then differentiated into white adipocytes. The differentiated adipocytes were treated with the compounds obtained in the Preparation Examples at a concentration of 20 μM. A group treated with DMSO at a concentration of 20 μM and a group treated with butein at a concentration of 20 μM were used as a control group, respectively.
While the UCP1 (uncoupling protein-1) is contained in the mitochondria of brown adipocytes or beige adipocytes, it is difficult to find UCP1 in white adipocytes having little mitochondria. Therefore, by measuring the expression level of UCP1, it is possible to determine whether preadipocytes have differentiated into white adipocytes or otherwise brown adipocytes or beige adipocytes. The higher the expression level of UCP1, the more differentiated preadipocytes into brown adipocytes or beige adipocytes.

UCP1 = conditions: reported in US Patent Publication No. US 2015/0374643 A1; cited from earlier work

| SMILES | Relative expression level of UCP1 compared to DMSO [1] | Relative expression level of UCP1 compared to butein [1] | Effect on expression level of UCP1 (UCP1) |
| --- | --- | --- | --- |
| Oc1ccc(-n2cc(-c3ccc(O)c(O)c3)nn2)cc1 [Compound 4, 4-(1-(4-hydroxyphenyl)-1H-1,2,3-triazole-4-yl)benzene-1,2-diol] | 2.1 | 18.6 |  |
| O=C(/C=C/c1ccc(O)c(O)c1)c1ccc(O)cc1O [butein] |  |  | increases the expression level of UCP1 |
| COc1ccc(-n2cc(-c3ccc(O)c(O)c3)nn2)c(OC)c1 [Compound 1, 4-(1-(2,4-dimethoxyphenyl)-1H-1,2,3-triazole-4-yl)benzene-1.2-diol] | 3.5 | 12.2 |  |
| Cc1cc(-n2cc(-c3ccc(O)c(O)c3)nn2)ccc1O [Compound 5, 4-(1-(4-hydroxy-3-methylphenyl)-1H-1,2,3-triazole-4-yl)benzene-1.2-diol] | 2.3 | 20.6 |  |
| Oc1ccc(-c2cn(-c3ccc(F)cc3)nn2)cc1O [Compound 3, 4-(1-(4-fluorophenyl)-1H-1,2,3-triazole-4-yl)benzene-1,2-diol] | 12.2 | 34.1 |  |
| OCCOc1ccc(-n2cc(-c3ccc(O)c(O)c3)nn2)cc1 [Compound 15, 4-(1-(4-(2-hydroxyethoxy)phenyl)-1H-1,2,3-triazole-4-yl)benzene-1,2-diol] | 1.6 | 26.9 |  |
| C[NH+](C)CCOc1ccc(-n2cc(-c3ccc(O)c(O)c3)nn2)cc1.[Cl-] [Compound 16, 4-(1-(4-(2-(dimethylamino)ethoxy)phenyl)-1H-1,2,3-triazole-4-yl)benzene-1,2-diol Hydrochloride] | 2.3 | 37.0 |  |
| Oc1ccc(-c2cn(-c3ccc(Cl)cc3)nn2)cc1O [Compound 2, 4-(1-(4-chlorophenyl)-1H-1,2,3-triazole-4-yl)benzene-1,2-diol] | 6.6 | 18.6 |  |
| Nc1c(-c2ccc(Cl)cc2)nnn1-c1ccc(O)c(O)c1 [Compound 24, 4-(5-amino-4-(4-chlorophenyl)-1H-1,2,3-triazole-1-yl)benzene-1,2-diol] | 10.6 | 29.7 |  |
